Assays:
Test in all cases: radiometric filter-binding kinase assay
AURKB (human) = AURKB (human) (UniProt Q96GD4)
BRSK1 (human) = BRSK1 (human) (UniProt Q8TDC3)
BTK (human) = BTK (human) (UniProt Q06187)
CAMKK2 (human) = CAMKK2 (human) (UniProt Q96RR4)
CSK (human) = CSK (human) (UniProt P41240)
CSNK1D (human) = CSNK1D (human) (UniProt P48730)
CaMK1 (human) = CaMK1 (human) (UniProt Q14012)
DYRK1A (human) = DYRK1A (human) (UniProt Q13627)
DYRK2 (human) = DYRK2 (human) (UniProt Q92630)
EPHA4 (human) = EPHA4 (human) (UniProt P54764)
EPHB2 (human) = EPHB2 (human) (UniProt P29323)
EPHB3 (human) = EPHB3 (human) (UniProt P54753)
IKBKB (human) = IKBKB (human) (UniProt O14920)
IKBKE (human) = IKBKE (human) (UniProt Q14164)
MAP2K2 (human) = MAP2K2 (human) (UniProt P36507)
MAP3K11 (human) = MAP3K11 (human) (UniProt Q16584)
MAP3K7 TAB1 (human) = MAP3K7 TAB1 (human) (UniProt Q15750+O43318)
MAPK12 (human) = MAPK12 (human) (UniProt P53778)
MAPK14 (human) = MAPK14 (human) (UniProt Q16539)
MAPK15 (human) = MAPK15 (human) (UniProt Q8TD08)
MAPK8 (human) = MAPK8 (human) (UniProt P45983)
MAPK9 (human) = MAPK9 (human) (UniProt P45984)
MAPKAPK2 (human) = MAPKAPK2 (human) (UniProt P49137)
MAPKAPK5 (human) = MAPKAPK5 (human) (UniProt Q8IW41)
MELK (human) = MELK (human) (UniProt Q14680)
MINK1 (human) = MINK1 (human) (UniProt Q8N4C8)
MKNK2 (human) = MKNK2 (human) (UniProt Q9HBH9)
PAK4 (human) = PAK4 (human) (UniProt O96013)
PAK7 (human) = PAK7 (human) (UniProt Q9P286)
PIM1 (human) = PIM1 (human) (UniProt P11309)
PRKACA (human) = PRKACA (human) (UniProt P17612)
RIPK2 (human) = RIPK2 (human) (UniProt O43353)
YES1 (human) = YES1 (human) (UniProt P07947)

Sequence of MAP3K11 (human) (Q16584 whole entry, looked up): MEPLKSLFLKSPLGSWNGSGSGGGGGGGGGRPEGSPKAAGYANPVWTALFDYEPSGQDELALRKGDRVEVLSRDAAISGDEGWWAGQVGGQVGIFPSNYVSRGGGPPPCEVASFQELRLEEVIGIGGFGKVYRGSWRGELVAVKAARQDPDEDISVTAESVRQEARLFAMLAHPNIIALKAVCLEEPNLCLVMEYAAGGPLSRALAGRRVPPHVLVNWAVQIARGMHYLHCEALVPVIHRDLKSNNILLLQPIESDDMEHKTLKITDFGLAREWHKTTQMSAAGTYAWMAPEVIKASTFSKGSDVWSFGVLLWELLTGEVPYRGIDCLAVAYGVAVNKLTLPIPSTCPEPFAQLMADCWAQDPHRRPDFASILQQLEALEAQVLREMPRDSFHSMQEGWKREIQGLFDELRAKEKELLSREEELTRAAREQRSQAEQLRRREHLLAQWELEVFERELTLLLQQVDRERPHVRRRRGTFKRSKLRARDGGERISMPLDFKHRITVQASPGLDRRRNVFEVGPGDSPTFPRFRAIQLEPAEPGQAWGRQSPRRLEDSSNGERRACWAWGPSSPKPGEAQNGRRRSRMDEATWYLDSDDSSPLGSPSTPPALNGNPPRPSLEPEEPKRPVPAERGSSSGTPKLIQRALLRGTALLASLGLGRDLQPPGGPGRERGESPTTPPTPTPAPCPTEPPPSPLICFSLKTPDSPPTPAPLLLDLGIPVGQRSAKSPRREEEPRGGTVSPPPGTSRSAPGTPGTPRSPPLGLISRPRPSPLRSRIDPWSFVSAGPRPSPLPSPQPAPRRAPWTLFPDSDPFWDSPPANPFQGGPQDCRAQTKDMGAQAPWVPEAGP
Sequence of MAPK8 (human) (P45983 whole entry, looked up): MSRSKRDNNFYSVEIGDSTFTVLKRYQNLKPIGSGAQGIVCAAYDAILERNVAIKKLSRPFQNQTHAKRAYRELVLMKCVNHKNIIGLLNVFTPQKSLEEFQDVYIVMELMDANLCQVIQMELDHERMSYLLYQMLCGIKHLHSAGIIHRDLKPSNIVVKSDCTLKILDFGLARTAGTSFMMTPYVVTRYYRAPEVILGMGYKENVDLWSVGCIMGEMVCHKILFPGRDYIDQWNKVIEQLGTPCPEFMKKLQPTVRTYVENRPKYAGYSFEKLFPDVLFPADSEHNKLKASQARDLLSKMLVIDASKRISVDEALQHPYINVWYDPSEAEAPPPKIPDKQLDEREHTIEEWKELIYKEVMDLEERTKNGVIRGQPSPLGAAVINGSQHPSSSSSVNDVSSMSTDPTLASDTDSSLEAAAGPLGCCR
Sequence of MELK (human) (Q14680 whole entry, looked up): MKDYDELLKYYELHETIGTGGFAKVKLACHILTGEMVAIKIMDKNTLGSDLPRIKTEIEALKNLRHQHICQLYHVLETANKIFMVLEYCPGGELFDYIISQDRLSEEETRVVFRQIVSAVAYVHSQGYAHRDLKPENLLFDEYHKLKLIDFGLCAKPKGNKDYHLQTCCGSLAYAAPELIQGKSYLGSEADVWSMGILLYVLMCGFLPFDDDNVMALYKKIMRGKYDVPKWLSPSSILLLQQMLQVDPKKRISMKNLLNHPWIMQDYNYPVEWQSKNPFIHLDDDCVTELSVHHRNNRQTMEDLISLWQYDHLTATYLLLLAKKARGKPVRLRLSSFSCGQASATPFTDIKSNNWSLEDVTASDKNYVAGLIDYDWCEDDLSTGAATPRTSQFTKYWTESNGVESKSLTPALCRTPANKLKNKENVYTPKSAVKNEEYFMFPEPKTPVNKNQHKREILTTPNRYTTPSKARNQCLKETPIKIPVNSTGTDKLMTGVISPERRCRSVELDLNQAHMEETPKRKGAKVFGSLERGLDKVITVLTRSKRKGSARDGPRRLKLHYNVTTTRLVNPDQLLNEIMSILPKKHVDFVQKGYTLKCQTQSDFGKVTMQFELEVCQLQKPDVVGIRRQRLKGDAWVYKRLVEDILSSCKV
Sequence of MAPKAPK2 (human) (P49137 whole entry, looked up): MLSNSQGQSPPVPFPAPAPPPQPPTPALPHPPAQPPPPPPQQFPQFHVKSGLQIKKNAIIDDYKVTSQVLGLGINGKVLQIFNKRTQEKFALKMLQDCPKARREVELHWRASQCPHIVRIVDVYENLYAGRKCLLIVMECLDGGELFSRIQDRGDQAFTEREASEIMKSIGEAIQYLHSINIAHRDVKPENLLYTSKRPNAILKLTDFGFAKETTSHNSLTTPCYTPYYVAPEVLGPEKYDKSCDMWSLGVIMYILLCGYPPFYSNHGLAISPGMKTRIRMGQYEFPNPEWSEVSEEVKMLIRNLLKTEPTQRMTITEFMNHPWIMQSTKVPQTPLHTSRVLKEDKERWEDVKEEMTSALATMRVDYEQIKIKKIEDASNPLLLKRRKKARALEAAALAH
Sequence of AURKB (human) (Q96GD4 whole entry, looked up): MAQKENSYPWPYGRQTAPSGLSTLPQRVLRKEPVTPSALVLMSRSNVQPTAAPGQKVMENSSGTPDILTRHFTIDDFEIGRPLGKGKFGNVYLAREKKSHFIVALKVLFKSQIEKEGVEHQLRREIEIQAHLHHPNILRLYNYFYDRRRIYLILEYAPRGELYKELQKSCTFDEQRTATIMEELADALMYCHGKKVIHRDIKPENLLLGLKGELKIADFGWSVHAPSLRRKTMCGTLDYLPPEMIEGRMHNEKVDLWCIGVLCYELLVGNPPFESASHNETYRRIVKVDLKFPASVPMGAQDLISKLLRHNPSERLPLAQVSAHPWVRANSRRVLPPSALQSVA
Sequence of CAMKK2 (human) (Q96RR4 whole entry, looked up): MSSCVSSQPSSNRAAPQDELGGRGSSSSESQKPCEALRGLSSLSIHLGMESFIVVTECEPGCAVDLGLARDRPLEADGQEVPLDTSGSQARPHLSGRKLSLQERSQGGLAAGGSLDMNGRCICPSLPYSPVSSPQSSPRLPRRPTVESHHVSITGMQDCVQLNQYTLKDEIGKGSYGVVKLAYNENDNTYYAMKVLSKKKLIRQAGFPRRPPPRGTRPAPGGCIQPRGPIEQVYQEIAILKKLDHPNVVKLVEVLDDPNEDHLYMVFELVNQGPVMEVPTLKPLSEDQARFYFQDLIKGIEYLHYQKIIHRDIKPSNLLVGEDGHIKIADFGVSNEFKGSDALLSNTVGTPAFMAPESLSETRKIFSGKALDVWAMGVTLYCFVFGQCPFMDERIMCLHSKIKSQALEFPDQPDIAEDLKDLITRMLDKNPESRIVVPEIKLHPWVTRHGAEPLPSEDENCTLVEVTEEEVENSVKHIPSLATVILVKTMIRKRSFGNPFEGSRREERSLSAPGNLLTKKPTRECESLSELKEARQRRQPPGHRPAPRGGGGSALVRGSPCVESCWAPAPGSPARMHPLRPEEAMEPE
Sequence of MKNK2 (human) (Q9HBH9 whole entry, looked up): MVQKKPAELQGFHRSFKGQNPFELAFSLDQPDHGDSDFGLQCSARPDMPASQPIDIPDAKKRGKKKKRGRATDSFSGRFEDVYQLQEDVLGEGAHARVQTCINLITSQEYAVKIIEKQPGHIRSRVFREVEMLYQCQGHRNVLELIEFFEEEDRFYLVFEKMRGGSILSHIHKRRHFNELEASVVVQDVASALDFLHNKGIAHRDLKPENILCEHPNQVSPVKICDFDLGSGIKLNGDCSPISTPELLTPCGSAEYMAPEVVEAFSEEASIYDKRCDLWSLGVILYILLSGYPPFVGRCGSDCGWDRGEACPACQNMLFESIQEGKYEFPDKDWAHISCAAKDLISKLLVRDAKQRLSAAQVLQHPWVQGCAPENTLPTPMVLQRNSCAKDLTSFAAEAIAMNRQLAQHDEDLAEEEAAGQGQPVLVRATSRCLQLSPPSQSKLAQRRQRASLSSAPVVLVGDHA
Sequence of CSK (human) (P41240 whole entry, looked up): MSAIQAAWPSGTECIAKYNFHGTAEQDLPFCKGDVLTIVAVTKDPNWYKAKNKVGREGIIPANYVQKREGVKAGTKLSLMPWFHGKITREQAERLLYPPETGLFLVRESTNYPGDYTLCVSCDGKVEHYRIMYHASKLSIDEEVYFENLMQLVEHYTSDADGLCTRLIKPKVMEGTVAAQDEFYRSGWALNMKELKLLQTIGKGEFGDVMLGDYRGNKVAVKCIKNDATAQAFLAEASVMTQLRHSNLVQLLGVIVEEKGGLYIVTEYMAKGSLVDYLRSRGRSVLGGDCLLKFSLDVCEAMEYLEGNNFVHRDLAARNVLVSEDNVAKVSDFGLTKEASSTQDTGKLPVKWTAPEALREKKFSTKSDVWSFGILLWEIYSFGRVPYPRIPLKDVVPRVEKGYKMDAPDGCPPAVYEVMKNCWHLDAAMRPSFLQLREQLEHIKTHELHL
Sequence of MAPKAPK5 (human) (Q8IW41 whole entry, looked up): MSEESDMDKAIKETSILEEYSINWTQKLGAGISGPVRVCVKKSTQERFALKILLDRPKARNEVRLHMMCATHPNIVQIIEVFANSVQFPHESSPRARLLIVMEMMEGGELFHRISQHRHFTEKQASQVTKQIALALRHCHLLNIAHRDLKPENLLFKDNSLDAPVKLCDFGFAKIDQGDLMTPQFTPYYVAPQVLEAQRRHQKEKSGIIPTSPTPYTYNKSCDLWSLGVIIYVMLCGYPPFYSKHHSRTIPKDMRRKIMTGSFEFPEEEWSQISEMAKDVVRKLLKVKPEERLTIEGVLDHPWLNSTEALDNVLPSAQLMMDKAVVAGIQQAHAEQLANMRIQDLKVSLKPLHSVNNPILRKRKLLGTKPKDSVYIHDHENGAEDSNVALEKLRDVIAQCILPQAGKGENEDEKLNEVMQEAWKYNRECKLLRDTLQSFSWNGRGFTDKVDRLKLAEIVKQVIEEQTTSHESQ
Sequence of PIM1 (human) (P11309 whole entry, looked up): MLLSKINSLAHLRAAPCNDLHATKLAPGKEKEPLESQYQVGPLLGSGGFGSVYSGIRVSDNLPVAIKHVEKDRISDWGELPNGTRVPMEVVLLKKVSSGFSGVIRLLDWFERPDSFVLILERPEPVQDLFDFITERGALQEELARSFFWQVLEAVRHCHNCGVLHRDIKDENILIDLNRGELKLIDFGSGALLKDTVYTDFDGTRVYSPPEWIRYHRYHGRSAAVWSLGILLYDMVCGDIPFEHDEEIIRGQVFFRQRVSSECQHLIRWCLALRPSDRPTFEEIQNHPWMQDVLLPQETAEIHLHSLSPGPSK

Question: With `COc1ccc(N(C(=O)Nc2c(C)cccc2C)c2cc(Nc3ccc(N4CCN(C)CC4)cc3)ncn2)c(OC)c1` as the compound, how does the residual activity (AURKB (human); compound 0.01 µM) read?
Answer: Its residual activity is 93%.

Question: And the residual activity (AURKB (human); compound 0.1 µM)?
Answer: The residual activity was 92%.

Question: And the residual activity (AURKB (human); compound 1.0 µM)?
Answer: Its residual activity is 91%.

Question: What about the residual activity (BRSK1 (human); compound 0.01 µM) of the same compound?
Answer: The residual activity was 103%.

Question: What about the residual activity (BRSK1 (human); compound 0.1 µM) of the same compound?
Answer: The residual activity was 99%.

Question: And the residual activity (BRSK1 (human); compound 1.0 µM)?
Answer: The residual activity was 86%.

Question: And the residual activity (BTK (human); compound 0.01 µM)?
Answer: Its residual activity is 91%.

Question: And the residual activity (BTK (human); compound 0.1 µM)?
Answer: Its residual activity is 38%.

Question: What about the residual activity (BTK (human); compound 1.0 µM) of the same compound?
Answer: Its residual activity is 21%.

Question: And the residual activity (CAMKK2 (human); compound 0.01 µM)?
Answer: The residual activity was 105%.

Question: And the residual activity (CAMKK2 (human); compound 0.1 µM)?
Answer: Its residual activity is 102%.

Question: And the residual activity (CAMKK2 (human); compound 1.0 µM)?
Answer: The residual activity was 89%.

Question: What about the residual activity (CSK (human); compound 0.01 µM) of the same compound?
Answer: Its residual activity is 119%.

Question: What about the residual activity (CSK (human); compound 0.1 µM) of the same compound?
Answer: The residual activity was 101%.

Question: And the residual activity (CSK (human); compound 1.0 µM)?
Answer: The residual activity was 38%.

Question: And the residual activity (CSNK1D (human); compound 0.01 µM)?
Answer: The residual activity was 89%.

Question: And the residual activity (CSNK1D (human); compound 0.1 µM)?
Answer: The residual activity was 85%.

Question: What about the residual activity (CSNK1D (human); compound 1.0 µM) of the same compound?
Answer: Its residual activity is 79%.

Question: And the residual activity (CaMK1 (human); compound 0.01 µM)?
Answer: The residual activity was 97%.

Question: And the residual activity (CaMK1 (human); compound 0.1 µM)?
Answer: Its residual activity is 90%.

Question: And the residual activity (CaMK1 (human); compound 1.0 µM)?
Answer: The residual activity was 90%.

Question: And the residual activity (DYRK1A (human); compound 0.01 µM)?
Answer: Its residual activity is 100%.

Question: And the residual activity (DYRK1A (human); compound 0.1 µM)?
Answer: The residual activity was 95%.

Question: What about the residual activity (DYRK1A (human); compound 1.0 µM) of the same compound?
Answer: The residual activity was 93%.

Question: What about the residual activity (DYRK2 (human); compound 0.01 µM) of the same compound?
Answer: The residual activity was 89%.

Question: What about the residual activity (DYRK2 (human); compound 0.1 µM) of the same compound?
Answer: Its residual activity is 85%.

Question: What about the residual activity (DYRK2 (human); compound 1.0 µM) of the same compound?
Answer: Its residual activity is 93%.

Question: And the residual activity (EPHA4 (human); compound 0.01 µM)?
Answer: The residual activity was 71%.

Question: What about the residual activity (EPHA4 (human); compound 0.1 µM) of the same compound?
Answer: The residual activity was 12%.

Question: What about the residual activity (EPHA4 (human); compound 1.0 µM) of the same compound?
Answer: The residual activity was 6%.

Question: What about the residual activity (EPHB2 (human); compound 0.01 µM) of the same compound?
Answer: The residual activity was 109%.

Question: And the residual activity (EPHB2 (human); compound 0.1 µM)?
Answer: Its residual activity is 43%.

Question: What about the residual activity (EPHB2 (human); compound 1.0 µM) of the same compound?
Answer: Its residual activity is 1%.

Question: What about the residual activity (EPHB3 (human); compound 0.01 µM) of the same compound?
Answer: Its residual activity is 108%.

Question: And the residual activity (EPHB3 (human); compound 0.1 µM)?
Answer: Its residual activity is 61%.

Question: And the residual activity (EPHB3 (human); compound 1.0 µM)?
Answer: Its residual activity is 18%.

Question: What about the residual activity (IKBKB (human); compound 0.01 µM) of the same compound?
Answer: Its residual activity is 83%.

Question: What about the residual activity (IKBKB (human); compound 0.1 µM) of the same compound?
Answer: Its residual activity is 95%.

Question: And the residual activity (IKBKB (human); compound 1.0 µM)?
Answer: Its residual activity is 99%.

Question: And the residual activity (IKBKE (human); compound 0.1 µM)?
Answer: Its residual activity is 94%.

Question: What about the residual activity (IKBKE (human); compound 1.0 µM) of the same compound?
Answer: Its residual activity is 102%.

Question: What about the residual activity (MAP2K2 (human); compound 0.01 µM) of the same compound?
Answer: Its residual activity is 101%.

Question: And the residual activity (MAP2K2 (human); compound 0.1 µM)?
Answer: Its residual activity is 96%.

Question: And the residual activity (MAP2K2 (human); compound 1.0 µM)?
Answer: The residual activity was 85%.

Question: What about the residual activity (MAP3K11 (human); compound 0.01 µM) of the same compound?
Answer: Its residual activity is 105%.

Question: What about the residual activity (MAP3K11 (human); compound 0.1 µM) of the same compound?
Answer: Its residual activity is 100%.

Question: What about the residual activity (MAP3K11 (human); compound 1.0 µM) of the same compound?
Answer: The residual activity was 70%.

Question: And the residual activity (MAP3K7 TAB1 (human); compound 0.1 µM)?
Answer: The residual activity was 110%.

Question: What about the residual activity (MAP3K7 TAB1 (human); compound 1.0 µM) of the same compound?
Answer: Its residual activity is 84%.

Question: What about the residual activity (MAPK12 (human); compound 0.01 µM) of the same compound?
Answer: Its residual activity is 110%.

Question: What about the residual activity (MAPK12 (human); compound 0.1 µM) of the same compound?
Answer: Its residual activity is 112%.

Question: What about the residual activity (MAPK12 (human); compound 1.0 µM) of the same compound?
Answer: Its residual activity is 105%.

Question: What about the residual activity (MAPK14 (human); compound 0.01 µM) of the same compound?
Answer: The residual activity was 121%.

Question: What about the residual activity (MAPK14 (human); compound 0.1 µM) of the same compound?
Answer: Its residual activity is 79%.

Question: What about the residual activity (MAPK14 (human); compound 1.0 µM) of the same compound?
Answer: The residual activity was 26%.

Question: And the residual activity (MAPK15 (human); compound 0.01 µM)?
Answer: The residual activity was 108%.

Question: What about the residual activity (MAPK15 (human); compound 0.1 µM) of the same compound?
Answer: Its residual activity is 112%.

Question: And the residual activity (MAPK15 (human); compound 1.0 µM)?
Answer: Its residual activity is 94%.

Question: And the residual activity (MAPK8 (human); compound 0.01 µM)?
Answer: Its residual activity is 94%.

Question: And the residual activity (MAPK8 (human); compound 0.1 µM)?
Answer: Its residual activity is 107%.

Question: And the residual activity (MAPK8 (human); compound 1.0 µM)?
Answer: Its residual activity is 86%.

Question: What about the residual activity (MAPK9 (human); compound 0.01 µM) of the same compound?
Answer: The residual activity was 103%.

Question: What about the residual activity (MAPK9 (human); compound 0.1 µM) of the same compound?
Answer: Its residual activity is 90%.

Question: And the residual activity (MAPK9 (human); compound 1.0 µM)?
Answer: The residual activity was 21%.

Question: And the residual activity (MAPKAPK2 (human); compound 0.01 µM)?
Answer: Its residual activity is 101%.

Question: And the residual activity (MAPKAPK2 (human); compound 0.1 µM)?
Answer: Its residual activity is 100%.

Question: What about the residual activity (MAPKAPK2 (human); compound 1.0 µM) of the same compound?
Answer: Its residual activity is 97%.

Question: What about the residual activity (MAPKAPK5 (human); compound 0.01 µM) of the same compound?
Answer: Its residual activity is 119%.

Question: What about the residual activity (MAPKAPK5 (human); compound 0.1 µM) of the same compound?
Answer: Its residual activity is 115%.

Question: What about the residual activity (MAPKAPK5 (human); compound 1.0 µM) of the same compound?
Answer: The residual activity was 125%.

Question: What about the residual activity (MELK (human); compound 0.01 µM) of the same compound?
Answer: Its residual activity is 105%.

Question: And the residual activity (MELK (human); compound 0.1 µM)?
Answer: The residual activity was 93%.

Question: And the residual activity (MELK (human); compound 1.0 µM)?
Answer: The residual activity was 71%.

Question: And the residual activity (MINK1 (human); compound 0.01 µM)?
Answer: The residual activity was 94%.

Question: What about the residual activity (MINK1 (human); compound 0.1 µM) of the same compound?
Answer: The residual activity was 76%.

Question: What about the residual activity (MINK1 (human); compound 1.0 µM) of the same compound?
Answer: Its residual activity is 18%.

Question: What about the residual activity (MKNK2 (human); compound 0.01 µM) of the same compound?
Answer: Its residual activity is 107%.

Question: And the residual activity (MKNK2 (human); compound 0.1 µM)?
Answer: The residual activity was 107%.

Question: What about the residual activity (MKNK2 (human); compound 1.0 µM) of the same compound?
Answer: Its residual activity is 102%.

Question: And the residual activity (PAK4 (human); compound 0.01 µM)?
Answer: The residual activity was 116%.

Question: What about the residual activity (PAK4 (human); compound 0.1 µM) of the same compound?
Answer: The residual activity was 97%.

Question: What about the residual activity (PAK4 (human); compound 1.0 µM) of the same compound?
Answer: The residual activity was 94%.

Question: What about the residual activity (PAK7 (human); compound 0.01 µM) of the same compound?
Answer: The residual activity was 95%.

Question: What about the residual activity (PAK7 (human); compound 0.1 µM) of the same compound?
Answer: Its residual activity is 91%.

Question: What about the residual activity (PAK7 (human); compound 1.0 µM) of the same compound?
Answer: The residual activity was 72%.

Question: And the residual activity (PIM1 (human); compound 0.01 µM)?
Answer: The residual activity was 107%.

Question: What about the residual activity (PIM1 (human); compound 0.1 µM) of the same compound?
Answer: The residual activity was 113%.

Question: What about the residual activity (PIM1 (human); compound 1.0 µM) of the same compound?
Answer: Its residual activity is 111%.

Question: And the residual activity (PRKACA (human); compound 0.01 µM)?
Answer: The residual activity was 91%.

Question: And the residual activity (PRKACA (human); compound 0.1 µM)?
Answer: Its residual activity is 96%.

Question: What about the residual activity (PRKACA (human); compound 1.0 µM) of the same compound?
Answer: Its residual activity is 79%.

Question: What about the residual activity (RIPK2 (human); compound 0.01 µM) of the same compound?
Answer: The residual activity was 77%.

Question: What about the residual activity (RIPK2 (human); compound 0.1 µM) of the same compound?
Answer: Its residual activity is 37%.

Question: What about the residual activity (RIPK2 (human); compound 1.0 µM) of the same compound?
Answer: The residual activity was 8%.

Question: And the residual activity (YES1 (human); compound 0.01 µM)?
Answer: Its residual activity is 34%.

Question: What about the residual activity (YES1 (human); compound 0.1 µM) of the same compound?
Answer: The residual activity was 11%.

Question: What about the residual activity (YES1 (human); compound 1.0 µM) of the same compound?
Answer: The residual activity was 8%.
